In US9657059B2, “Immune system modulators” (Canimguide Therapeutics AB, priority 2013, dated 2017):
No end group written: not given here.

Assays:
P3028 = P3028 (Homo sapiens, UniProt P02768); experiment: Chip ELISA: binding of His-tag labeled P3028 to cyclic peptides, positional scan
Description: In order to identify cyclic peptides that bind to P3028, all possible variants of di- and tripeptides were synthesized on chips and the binding of the His-tag labeled P 3028 was analyzed using the ELISA-technique. Based on the identified binding motifs, looped 6-meres were produced and tested. […] Positional scans were performed in each position of the lead cyclic peptide was replaced with each of the other 19 L-amino acids. Binding of each of the substituted peptides was tested, and peptide sequences with even better binding capacity than that of the lead peptide were identified.

[1] = system: NK-cell cytotoxicity against K562 target cells; type: cell-based, human
Description: The ability of specific albumin fragments to impact NK-cell cytotoxicity was also evaluated. In these experiments, synthetic peptides corresponding to albumin fragments (P3028, P3026, and P3027) (SEQ ID NOs: 185, 183, and 184, respectively) were prepared and the amount of lysis of K562 target cells was assessed (see Example 4).

K562 target cells = experiment: NK-cell cytotoxicity (NKTEST); type: cell-based, human; conditions: 10 ug/ml, effector:target 40:1, four donors
Description: The NK-cell cytotoxic activity of blood mononuclear cells from four healthy donors was tested. Mononuclear cells were separated by standard Ficoll-paque Plus (Pharmacia AB, Sweden) density gradient centrifugation from heparinized blood obtained from healthy donors. NK cell cytotoxic activity of the mononuclear cells was then tested using a commercial kit (NKTEST, Orpegen Pharma GmblI, Heidelberg, Germany) following the manufacturers protocol. Briefly, the kit contains cryopreserved, NK-sensitive target cells (K562) labeled with a lipophilic green fluorescent membrane dye, which enables discrimination of effector and target cells. After incubation with effector cells, killed target cells are identified by a DNA-stain, which penetrates and specifically stain the nuclei of dead target cells. This way the percentage of killed targets can be determined by flow cytometry. The mononuclear cells were preincubated for 30 min at 37° C. with the indicated peptides (peptides have been described previously) at 10 ug/ml. Target cells were then added, giving an effector:target ratio of 40:1, and the cell mixture incubated at 37° C. for 3-4 hours. Samples were analysed on a FACSCalibur (BD Biosciences, San Jose, Calif.).

[2] = system: PBMCs from a healthy control; experiment: PBMC activation (CD69, CD71) by flow cytometry in RPMI plus 10% human AB serum; type: cell-based; conditions: 40 μg/mL; for PBMC activation, cells with enhanced CD69: 24 hours
Description: FIG. 41 is a series of graphs illustrating effects of modified peptides on activation of PBMCs from healthy control person. PBMCs were incubated with the peptides (40 μg/mL) for 24 hours in RPMI plus 10% human AB serum. Activation is determined as percentage of cells with enhanced marker CD69 using flow cytometry. FIG. 41A illustrates results of two experiments (410 and 412) performed for each peptide. FIG. 41B illustrates results of two experiments (414 and 416) performed for each peptide.
FIG. 42 is a series of graphs illustrating effects of the full length peptide P28R and the 6 amino acid central sequence (32230, FFVKLS, SEQ ID NO: 62) in culture medium containing normal human AB serum. Activation is determined as percentage of cells with enhanced marker CD69 or CD71 using flow cytometry. PBMCs were incubated with the peptides (40 μg/mL) for 24 hours in RPMI plus 10% human AB serum. FIG. 42A illustrates the results of two experiments (420 and 422) performed for each peptide. FIG. 42B illustrates the results of two experiments (424 and 426) performed for each peptide.
FIG. 46 is a series of graphs illustrating Effect of modified peptides on activation of PBMCs from healthy control person. […] PBMCs were incubated with the peptides (40 μg/mL) for 48 hours in RPMI plus 10% human AB serum.
Based on the positional scan data, it is contemplated that substitutions of SEQ ID NO: 2 can be useful in accordance with some embodiments herein for binding P3028, de-blocking the LFA-1 receptor from P3028-mediated inhibition (e.g. displacing bound P3028 peptide and P3028-structure containing molecules from the LFA-1 receptor), and/or stimulating immune cells. The activity of peptide P28R (SEQ ID NO: 2) and modifications of P28R was studied in a human ex vivo model using PBMCs from a healthy control human in short term cultures, and with PBMC activation measured as a percentage of cells with enhanced CD69 (see Example 37).
As P28R (SEQ ID NO: 2) can bind to P3028 and stimulate PBMC's from healthy controls in short term cultures, for example when in a culture medium comprising RPMI plus 10% normal human AB serum (see Example 37), it is contemplated that truncations of P28R in accordance with some embodiments herein can be useful for binding to inhibitors of any one or more of the peptides listed in Tables 1-4. Truncations of P28R were assessed for their ability to activate PBMC's (see Example 38). PBMCs were incubated with the peptides (40 μg/mL) for 24 hours in RPMI plus 10% human AB serum. PBMC activation was measured as percent cells with enhanced expression of either CD69 (FIG. 42A) or CD71 (FIG. 42B) using flow cytometry. […] However, PBMCs were also incubated with the peptides in cancer sera from dogs, or in caner sera from human cancer patients (see FIG. 43). […] As such, it is contemplated that in accordance with some embodiments herein, P28R, P28 core, or combinations of these peptides are useful for stimulating immune cells in the serum of a subject that has cancer.
Effects of modified peptides on the activation of PBMCs from a healthy control person were assessed (see Example 41). PBMCs were incubated with the peptides (40 μg/mL) for 48 hours in RPMI plus 10% human AB serum, and PBMC activation was determined by flow cytometry based on the percentage of cells with enhanced marker CD69 or CD71. Peptides P28R (SEQ ID NO: 2), P28 core (peptide 32230) (SEQ ID NO: 62), 32251 ([…]) (SEQ ID NO: 592), 32814 ([…]) (SEQ ID NO: 586), 32815 ([…]) (SEQ ID NO: 595), 32665 ([…]) (SEQ ID NO: 593), and 32819 ([…](C(PEG24))) (SEQ ID NO: 594) were tested. […] Accordingly, it is contemplated herein that

PBMCs [3] = experiment: PBMC activation (CD69/CD71, flow cytometry) in RPMI plus 10% human AB serum; type: cell-based; conditions: healthy control person, 40 μg/mL; for PBMC activation, cells with enhanced CD69: 24 hours
Description: The activity of peptide P28R (SEQ ID NO: 2) and modifications of P28R was studied in a human ex vivo model using PBMCs in short term cultures, 24 or 48 hours. Effects of P28R and modifications of P28R on PBMC's from a healthy control person were studied. Activation was measured as percentage of cells with enhanced marker CD69 using flow cytometry. PBMCs were incubated with the peptides (40 μg/mL) for 24 hours in RPMI plus 10% human AB serum.
As observed in Example 37, P28R (SEQ ID NO: 2) can stimulate PBMC's from healthy controls in short term cultures when RPMI plus 10% normal human AB serum is used as culture medium. Truncations of P28R were also assessed for their ability to activate PBMC's. PBMCs were incubated with the peptides (40 μg/mL) for 24 hours in RPMI plus 10% human AB serum. PBMC activation was measured as percent cells with enhanced expression of either CD69 (FIG. 42A) or CD71 (FIG. 42B) using flow cytometry. Two experiments were performed for each peptide.
Effects of modified peptides on activation of PBMCs from healthy control person were assessed. Activation was determined as percentage of cells with enhanced marker CD69 or CD71 using flow cytometry. PBMCs were incubated with the peptides (40 μg/mL) for 48 hours in RPMI plus 10% human AB serum.

PBMCs [4] = experiment: IL-2 induced proliferation of PBMCs, ex vivo model (3H-thymidine); type: cell-based, human; conditions: PBMCs from healthy control samples, 7 days
Description: 100 μl of RPMI1640 supplemented with 200 IU/ml penicillin, […] streptomycin, 4 mM L-glutamine (all from Sigma Chemical Co. MO, US) and 20% heat-inactivated human serum (autologous or from cancer patients) were added to uncoated, HSA or HSA/IgG coated tissue culture microtiter plates. PBMC, isolated from healthy individuals or patients with metastatic renal cell carcinoma, were diluted in RPMI/2% HSA at a concentration of 5×10^5/ml and 100 μl were added to the microtiter wells. Interleukin-2 (IL-2, Proleukin, Chiron, NL), at a final concentration of 120 IU/well, was added to some wells. Cells were cultured for 7 days in a humidified, 5% CO2-atmosphere at 37° C. Proliferation was assayed by incorporation of 1.6 μCi/well of [^3H]-thymidine (Amersham Int., UK) during the last 18 hrs. Mean values of dpm (disintegrations per minute) of triplicates were used for the calculations.
Cultures for IL-2 induced proliferation was set up with PBMC from healthy donors and autologous serum as described above with the exception that PBMC were first pre-incubated for 30 min at room temperature with the indicated albumin peptides at a concentration of 10 μg/ml. […]
The effect of different peptides on IL-2 induced proliferation was analyzed in the human ex vivo model, using PBMCs from healthy control samples. […] Proliferation was measured as incorporation of ^3H-thymidine during the final 18 hours. […]

With CLRLIVMCG [SEQ ID NO: 266] the “binding to P3028, positional scan” value (P3028) was “highest affinity”.

With CLRLNVFCG [SEQ ID NO: 265] the “binding to P3028, positional scan” value (P3028) was “highest affinity”.

For ELFEQLGEYKFQNALLVR [P3027], the “effect on NK-cell cytotoxicity” value [1] was “Inhibition was not seen” and the “effect on NK-cell cytotoxicity (percent specific lysis)” value (K562 target cells) was “Inhibition was not seen”.

For KKLDTFFVYLSLFTER [compound 31135], the “PBMC activation, cells with enhanced CD69” value [2] was “directly stimulate” and the “PBMC activation, cells with enhanced CD69” value (PBMCs [3]) was “also stimulated immune cells”.

KKLDTVMVKLQLMTER [compound 30680] was tested, and the “PBMC activation, cells with enhanced CD69” value [2] was “did not stimulate” and the “PBMC activation, cells with enhanced CD69” value (PBMCs [3]) was “induced activation of PBMCs”.

For “KVPQVSTPTLVEVSR (listed as Homo sapiens) [P3029]”, the “effect on IL-2 induced proliferation” value (PBMCs [4]) was “none of the other peptides identified by their binding to the artificial cell surface had any inhibitory activity”.

RKLDTFFVKLSLFTERRR [compound 32814] was tested, and the “PBMC activation, cells with enhanced CD69 and CD71” value ([2]; 48 hours) was “stimulatory effect in short term cultures similar to that of P28R” and the “PBMC activation, enhanced CD69 or CD71” value (PBMCs [3]; 48 hours) was “stimulatory effect in short term cultures similar to that of P28R”.
